The results in this text go back to patent US20230303513A1, “OXOPYRROLIDINE UREA FPR2 AGONISTS” (BRISTOL-MYERS SQUIBB COMPANY, priority 2020, published 2023).

One test has as its target human FPR1 (Homo sapiens (Human), UniProt P21462). As to the kind of experiment: FPR1 cyclic adenosine monophosphate (cAMP) assay. As to conditions: CHO cells overexpressing human FPR1; forskolin 10 μM, IBMX 200 μM; inhibition of cAMP production, HTRF; read-out: hFPR1 cAMP EC50. The class given is cell-based. From the text:
(§1) N-formyl peptide receptors (FPRs) are a family of chemo attractant receptors that facilitate leukocyte response during inflammation. FPRs belong to the seven-transmembrane G protein-coupled receptor superfamily and are linked to inhibitory G-proteins (Gi). Three family members (FPR1, FPR2 and FPR3) have been identified in humans and are predominantly found in myeloid cells with varied distribution and have also been reported in multiple organs and tissues. After agonist binding, the FPRs activate a multitude of physiological pathways, such as intra cellular signaling transduction, Ca^21 mobilization and transcription. The family interacts with a diverse set of ligands that includes proteins, polypeptides and fatty acid metabolites which activate both pro-inflammatory and pro-resolution downstream responses. FPR2 and FPR1 Cyclic Adenosine Monophosphate (cAMP) Assays were used to measure the activity of the compounds in this patent.
(§2) FPR2 and FPR1 Cyclic Adenosine Monophosphate (cAMP) Assays. A mixture of forskolin (5 μM final for FPR2 or 10 μM final for FPR1) and IBMX (200 μM final) were added to 384-well Proxiplates (Perkin-Elmer) pre-dotted with test compounds in DMSO (1% final) at final concentrations in the range of 0.020 nM to 100 μM. Chinese Hamster Ovary cells (CHO) overexpressing human FPR1 or human FPR2 receptors were cultured in F-12 (Ham's) medium supplemented with 10% qualified FBS, 250 μg/ml zeocin and 300 μg/ml hygromycin (Life Technologies). Reactions were initiated by adding 2,000 human FPR2 cells per well or 4,000 human FPR1 cells per well in Dulbecco's PBS (with calcium and magnesium) (Life Technologies) supplemented with 0.1% BSA (Perkin-Elmer). The reaction mixtures were incubated for 30 min at room temperature. The level of intracellular cAMP was determined using the HTRF HiRange cAMP assay reagent kit (Cisbio) according to manufacturer's instruction. Solutions of cryptate conjugated anti-cAMP and d2 flurorophore-labelled cAMP were made in a supplied lysis buffer separately. Upon completion of the reaction, the cells were lysed with equal volume of the d2-cAMP solution and anti-cAMP solution. After a 1-h room temperature incubation, time-resolved fluorescence intensity was measured using the Envision (Perkin-Elmer) at 400 nm excitation and dual emission at 590 nm and 665 nm. A calibration curve was constructed with an external cAMP standard at concentrations ranging from 1 μM to 0.1 μM by plotting the fluorescent intensity ratio from 665 nm emission to the intensity from the 590 nm emission against cAMP concentrations. The potency and activity of a compound to inhibit cAMP production was then determined by fitting to a 4-parametric logistic equation from a plot of cAMP level versus compound concentrations.

The target in a further test is human FPR2 (Homo sapiens (Human), UniProt P25090). As to the kind of experiment: FPR2 cyclic adenosine monophosphate (cAMP) assay. As to conditions: CHO cells overexpressing human FPR2; forskolin 5 μM, IBMX 200 μM; inhibition of cAMP production, HTRF; read-out: hFPR2 cAMP2 EC50. The class given is cell-based.
Sequence of human FPR2 (P25090 whole entry): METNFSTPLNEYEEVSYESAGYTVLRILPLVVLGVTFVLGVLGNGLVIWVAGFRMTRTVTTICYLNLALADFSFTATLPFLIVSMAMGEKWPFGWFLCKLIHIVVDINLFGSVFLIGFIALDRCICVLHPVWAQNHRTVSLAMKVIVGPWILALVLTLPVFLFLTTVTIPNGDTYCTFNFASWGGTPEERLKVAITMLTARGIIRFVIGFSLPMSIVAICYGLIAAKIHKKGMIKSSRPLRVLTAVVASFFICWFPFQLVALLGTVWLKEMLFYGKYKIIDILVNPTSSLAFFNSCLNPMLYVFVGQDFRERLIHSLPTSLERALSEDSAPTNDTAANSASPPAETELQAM
Source text: as §1, §2
Background: Changes in cAMP serve as a functional read-out for many G protein-coupled receptors.

Sequence of human FPR1 (P21462 whole entry): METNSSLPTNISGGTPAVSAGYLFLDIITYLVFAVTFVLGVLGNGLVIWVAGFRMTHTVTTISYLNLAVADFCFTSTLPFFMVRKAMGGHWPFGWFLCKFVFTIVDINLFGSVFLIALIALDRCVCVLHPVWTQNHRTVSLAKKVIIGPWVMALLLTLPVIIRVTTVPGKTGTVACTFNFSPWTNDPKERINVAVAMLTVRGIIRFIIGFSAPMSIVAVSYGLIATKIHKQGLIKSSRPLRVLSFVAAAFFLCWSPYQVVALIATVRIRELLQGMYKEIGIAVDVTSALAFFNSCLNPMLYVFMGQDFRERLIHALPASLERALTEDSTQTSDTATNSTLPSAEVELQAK

Broadly, the EC50 is the concentration giving half of the maximal effect. Turning to `COc1cc(F)c([C@@H]2CN(c3nccc(N4CCC(C)(O)C4)c3C(F)(F)F)C(=O)[C@H]2NC(=O)N[C@H]2CC[C@H](C(F)F)CC2)c(F)c1` (single isomer, unassigned) [Example 91], the concentration for a half-maximal effect (EC50) on human FPR1 is 780 nM; at human FPR2 it was 7.7 nM.
As for `COCCn1nccc(N2C[C@@H](c3c(F)cc(OC)cc3F)[C@H](NC(=O)NC3CCc4cc(OC)ccc4C3)C2=O)c1=O` (some centres unmarked) [Example 85], the values for the concentration giving a half-maximal response (EC50) at human FPR1 and on human FPR2 were 7.6 nM and 4.4 nM, respectively.
For `COc1cc(F)c([C@H]2[C@H](NC(=O)NC3CCc4cc(OC)ccc4C3(C)C)C(=O)N(c3ncccc3C(F)(F)F)[C@H]2C)c(F)c1` (some centres unmarked) [Example 59], in that order: 470 nM and 29 nM.
In the case of `COCCn1cccc(N2C[C@@H](c3ccc(OC)cc3)[C@H](NC(=O)NC3CCc4cc(Cl)ccc4C3)C2=O)c1=O` (some centres unmarked) [Example 16], the EC50 at human FPR1 worked out at 4.7 nM; at human FPR2, 1.7 nM.
For `COCCn1cccc(N2C[C@@H](c3ccc(OC)cc3)[C@H](NC(=O)NC3CCc4cc(OC)ccc4C3)C2=O)c1=O` (some centres unmarked) [Example 42], the EC50 on human FPR1 amounted to 1.7 nM; on human FPR2, 5.8 nM.
Consider `CCn1cccc(N2C[C@@H](c3c(F)cc(OC)cc3F)[C@H](NC(=O)NC3CCc4cc(OC)ccc4C3(C)C)C2=O)c1=O` (some centres unmarked) [Example 52], for which the EC50 at human FPR1 was determined as 593 nM; at human FPR2 it was 13 nM.
For `COc1cc(F)c([C@@H]2CN(c3nccc(N4CC(C)(O)C4)c3C(F)(F)F)C(=O)[C@H]2NC(=O)N[C@H]2CC[C@H](C(F)F)CC2)c(F)c1` [Example 101] the same measures were above 10000 nM and 1.6 nM.
On to `COc1cc(F)c([C@@H]2CN(c3ncccc3C(F)(F)F)C(=O)[C@H]2NC(=O)NC2COc3cc(OC)ccc3C2)c(F)c1` (some centres unmarked) [Example 33], for which the EC50 is 4.2 nM on human FPR1 and 4 nM on human FPR2.
For `CCn1cccc(N2C[C@@H](c3c(F)cc(OC)cc3F)[C@H](NC(=O)NC3CCc4cc(OC)ccc4C3)C2=O)c1=O` (some centres unmarked) [Example 41] the same measures were 0.5 nM and 5.6 nM.
Take `COc1cc(F)c([C@@H]2CN(c3ncccc3C(F)(F)F)C(=O)[C@H]2NC(=O)NC2CCc3cc(Cl)ccc3C2)c(F)c1` (some centres unmarked) [Example 43]: the EC50 at human FPR1 turned out to be 7.1 nM; on human FPR2, 6 nM.
For `COc1cc(F)c([C@@H]2CN(c3ncccc3C(F)(F)F)C(=O)[C@H]2NC(=O)NC2CCc3cc(OC)ccc3C2)c(F)c1` (some centres unmarked) [Example 47], in that order: above 10000 nM and 7.3 nM.
Take `CNC(=O)C(C)Nc1ccnc(N2C[C@@H](c3c(F)cc(OC)cc3F)[C@H](NC(=O)N[C@H]3CC[C@H](C(F)F)CC3)C2=O)c1C(F)(F)F` (single isomer, unassigned) [Example 76]: the EC50 on human FPR1 is above 1000 nM; at human FPR2 it was 23 nM.
For `COc1cc(F)c([C@H]2[C@H](NC(=O)N[C@H]3CC[C@H](C(F)F)CC3)C(=O)N(c3ncccc3OC)[C@H]2C)c(F)c1` [Example 48], in that order: 600 nM and 7.4 nM.
For `COCCn1cccc(N2C(=O)[C@@H](NC(=O)N[C@H]3CC[C@H](C(F)F)CC3)[C@H](c3c(F)cc(OC)cc3F)[C@@H]2C)c1=O` [Example 105], in that order: 1200 nM and 17 nM.
For `COc1cc(F)c([C@@H]2CN(c3nccc(NCCS(C)(=O)=O)c3C(F)(F)F)C(=O)[C@H]2NC(=O)N[C@H]2CC[C@H](C(F)F)CC2)c(F)c1` [Example 98] the same measures were above 5000 nM and 7.2 nM.
As for `COc1ccc([C@H]2C[C@@H]2NC(=O)N[C@@H]2C(=O)N(c3ncccc3C(F)(F)F)C[C@H]2c2c(F)cc(OC)cc2F)cc1` [Example 35], the EC50 at human FPR1 was found to be 62 nM; on human FPR2, 4.5 nM.
For `COc1ccc([C@H]2C[C@@H]2NC(=O)N[C@@H]2C(=O)N(c3ncccc3C(F)(F)F)C[C@H]2c2c(F)cc(OC)cc2F)cc1` [Example 49] the same measures were 2500 nM and 9.9 nM.
On to `COc1cc(F)c([C@@H]2CN(c3cccn(C(F)F)c3=O)C(=O)[C@H]2NC(=O)NC2CCc3cc(OC)ccc3C2)c(F)c1` (single isomer, unassigned) [Example 95], for which the EC50 was determined as 5.3 nM on human FPR1 and 4 nM on human FPR2.
For `CCn1cccc(N2C[C@@H](c3ccc(OC)cc3)[C@H](NC(=O)NC3CCc4cc(Cl)ccc4C3)C2=O)c1=O` (some centres unmarked) [Example 9], in that order: 6 nM and 0.7 nM.
As to `COc1cc(F)c([C@@H]2CN(c3nccc(N4C[C@@H](C)N(C)[C@@H](C)C4)c3C(F)(F)F)C(=O)[C@H]2NC(=O)N[C@H]2CC[C@H](C(F)F)CC2)c(F)c1` [Example 25], the EC50 at human FPR1 is 1630 nM; at human FPR2, 2.8 nM.
For `CCn1cccc(N2C[C@@H](c3c(F)cc(OC)cc3F)[C@H](NC(=O)NC3CCc4cc(OC)ccc4C3)C2=O)c1=O` (some centres unmarked) [Example 37] the same measures were 11 nM and 4.5 nM.
For `COc1cc(F)c([C@@H]2CN(c3nccc(NCC4CCOC4)c3C(F)(F)F)C(=O)[C@H]2NC(=O)N[C@H]2CC[C@H](C(F)F)CC2)c(F)c1` (single isomer, unassigned) [Example 74] the same measures were above 1000 nM and 26 nM.
For `COc1cc(F)c([C@@H]2CN(c3cccn(CC(O)C(F)(F)F)c3=O)C(=O)[C@H]2NC(=O)NC2CCc3cc(OC)ccc3C2)c(F)c1` (single isomer, unassigned) [Example 78], in that order: 100 nM and 50 nM.
With `CCn1nccc(N2C[C@@H](c3c(F)cc(OC)cc3F)[C@H](NC(=O)NC3CCc4cc(OC)ccc4C3)C2=O)c1=O` (single isomer, unassigned) [Example 86], the EC50 at human FPR1 is 0.3 nM; at human FPR2, 1.4 nM.
For `COCCNc1ccnc(N2C[C@@H](c3c(F)cc(OC)cc3F)[C@H](NC(=O)N[C@H]3CC[C@H](C(F)F)CC3)C2=O)c1C(F)(F)F` [Example 69], in that order: 1800 nM and 5.2 nM.
As for `COCCn1cccc(N2C(=O)[C@@H](NC(=O)NC3CCc4cc(OC)ccc4C3)[C@H](c3c(F)cc(OC)cc3F)[C@@H]2C)c1=O` (some centres unmarked) [Example 29], the EC50 at human FPR1 turned out to be 2.4 nM; on human FPR2 it was 3.3 nM.
For `COc1cc(F)c([C@@H]2CN(c3cccn(CCO)c3=O)C(=O)[C@H]2NC(=O)NC2CCc3cc(OC)ccc3C2)c(F)c1` (some centres unmarked) [Example 21] the same measures were 0.4 nM and 1.5 nM.
With `COCCn1cccc(N2C[C@@H](c3c(F)cc(OC)cc3F)[C@H](NC(=O)NC3CCc4cc(Cl)ccc4C3)C2=O)c1=O` (some centres unmarked) [Example 20], the EC50 on human FPR1 worked out at 38.9 nM; at human FPR2, 2.6 nM.
For the compound `COCC(CO)n1cccc(N2C[C@@H](c3c(F)cc(OC)cc3F)[C@H](NC(=O)NC3CCc4cc(OC)ccc4C3)C2=O)c1=O` (single isomer, unassigned) [Example 3], the concentration giving a half-maximal response (EC50) at human FPR1 is 20 nM; at human FPR2, 6 nM.
For `COCCn1cccc(N2C[C@@H](c3c(F)cc(OC)cc3F)[C@H](NC(=O)N[C@H]3CC[C@H](C(F)F)CC3)C2=O)c1=O` [Example 70], in that order: 1200 nM and 33 nM.
For `COc1cc(F)c([C@@H]2CN(c3cccn(CCO)c3=O)C(=O)[C@H]2NC(=O)NC2CCc3cc(Cl)ccc3C2)c(F)c1` (some centres unmarked) [Example 19] the same measures were 30.1 nM and 1.9 nM.
